# Measured values published in BindingDB's records for doi:10.1128/aac.00917-07 (Umdnj-New Jersey Medical School, 2007).
# Target: 1,3-beta-glucan synthase (Aspergillus fumigatus, UniProt P87204, S678P)
# Assay: Inhibition of 1,3-beta-D-glucan synthase EMFR-S678P mutant from Aspergillus fumigatus assessed as incorporation of [3H]glucose
# Chain of 1,3-beta-glucan synthase (P87204 entry or part of it S678P): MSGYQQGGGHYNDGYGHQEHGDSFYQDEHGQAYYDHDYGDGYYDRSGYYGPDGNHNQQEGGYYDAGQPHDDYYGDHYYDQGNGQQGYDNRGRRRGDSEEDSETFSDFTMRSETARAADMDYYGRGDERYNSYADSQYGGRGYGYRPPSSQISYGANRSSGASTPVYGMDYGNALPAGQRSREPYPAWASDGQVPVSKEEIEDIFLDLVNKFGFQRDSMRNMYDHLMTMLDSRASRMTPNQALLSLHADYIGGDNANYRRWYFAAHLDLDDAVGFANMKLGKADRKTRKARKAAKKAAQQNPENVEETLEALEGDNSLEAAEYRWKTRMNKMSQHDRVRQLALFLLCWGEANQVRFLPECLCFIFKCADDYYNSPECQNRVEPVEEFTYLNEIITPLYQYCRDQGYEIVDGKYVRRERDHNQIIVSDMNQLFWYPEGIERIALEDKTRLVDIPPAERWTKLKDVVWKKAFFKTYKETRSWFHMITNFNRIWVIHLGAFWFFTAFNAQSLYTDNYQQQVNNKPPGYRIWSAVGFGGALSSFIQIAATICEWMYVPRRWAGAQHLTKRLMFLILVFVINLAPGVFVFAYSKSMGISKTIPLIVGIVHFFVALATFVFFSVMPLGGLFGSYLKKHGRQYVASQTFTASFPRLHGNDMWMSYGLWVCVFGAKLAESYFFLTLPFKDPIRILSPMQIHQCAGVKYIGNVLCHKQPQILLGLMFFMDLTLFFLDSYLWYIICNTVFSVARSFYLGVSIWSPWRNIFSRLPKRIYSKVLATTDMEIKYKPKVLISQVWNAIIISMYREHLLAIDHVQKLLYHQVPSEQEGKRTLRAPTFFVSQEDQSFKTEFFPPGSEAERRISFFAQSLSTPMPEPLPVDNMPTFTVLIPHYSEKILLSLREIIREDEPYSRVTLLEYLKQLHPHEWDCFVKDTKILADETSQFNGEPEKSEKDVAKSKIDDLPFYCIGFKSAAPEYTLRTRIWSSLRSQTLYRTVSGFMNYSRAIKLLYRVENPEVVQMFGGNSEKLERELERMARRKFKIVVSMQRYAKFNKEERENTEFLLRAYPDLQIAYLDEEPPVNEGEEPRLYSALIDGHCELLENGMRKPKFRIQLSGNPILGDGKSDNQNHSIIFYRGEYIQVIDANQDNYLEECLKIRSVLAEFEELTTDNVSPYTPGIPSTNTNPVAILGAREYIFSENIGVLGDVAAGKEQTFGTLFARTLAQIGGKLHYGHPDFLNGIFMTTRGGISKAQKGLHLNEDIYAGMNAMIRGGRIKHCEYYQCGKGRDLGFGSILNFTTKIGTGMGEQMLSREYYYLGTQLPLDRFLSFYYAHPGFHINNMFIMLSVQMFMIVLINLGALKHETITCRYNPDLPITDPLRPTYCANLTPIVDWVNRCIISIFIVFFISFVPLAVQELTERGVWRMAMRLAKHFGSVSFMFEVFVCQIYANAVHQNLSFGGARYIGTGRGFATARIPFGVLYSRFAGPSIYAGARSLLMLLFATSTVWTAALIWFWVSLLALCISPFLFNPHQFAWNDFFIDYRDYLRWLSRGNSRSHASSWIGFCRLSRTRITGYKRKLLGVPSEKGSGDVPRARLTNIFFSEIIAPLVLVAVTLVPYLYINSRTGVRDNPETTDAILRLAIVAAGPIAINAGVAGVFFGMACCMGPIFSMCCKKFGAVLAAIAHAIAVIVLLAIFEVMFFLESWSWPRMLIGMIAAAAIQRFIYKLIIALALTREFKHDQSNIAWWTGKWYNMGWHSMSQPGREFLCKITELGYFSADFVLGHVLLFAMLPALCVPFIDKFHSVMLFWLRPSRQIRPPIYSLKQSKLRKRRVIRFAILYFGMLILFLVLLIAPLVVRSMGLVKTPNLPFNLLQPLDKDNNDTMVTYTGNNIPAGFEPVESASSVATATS
smiles,measurement,value
CCC(C)CC(C)CCCCCCCCC(=O)N[C@H]1C[C@@H](O)[C@@H](NCCN)NC(=O)[C@@H]2[C@@H](O)CCN2C(=O)[C@H]([C@H](O)CCN)NC(=O)[C@H]([C@H](O)[C@@H](O)c2ccc(O)cc2)NC(=O)[C@@H]2C[C@@H](O)CN2C(=O)[C@H]([C@@H](C)O)NC1=O (stereo partly specified) [CHEBI:474180],IC50,110 nM
